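Interpolation was linear, between the two tested concentrations surrounding the appropriate level; five concentrations were tested over 48 hours in 96-well plates. Here, GI50 denotes the concentration required for 50% inhibition of growth.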 Active and inactive are the calls of the source. Rule as the data show it: active = GI50 up to about 1.1 µM and inactive = higher.
What was measured:
Test in all cases: NCI tumour cell line growth inhibition, 48 h
[1] = test system: LOX IMVI
[2] = test system: NCI-H226
[3] = test system: A498
[4] = test system: UO-31
[5] = test system: SK-OV-3
[6] = test system: OVCAR-5
[7] = test system: PC-3
[8] = test system: SN12C
[9] = test system: OVCAR-4
[10] = test system: HCT-116
[11] = test system: RPMI-8226
[12] = test system: NCI-H460
[13] = test system: SK-MEL-2
[14] = test system: EKVX
[15] = test system: SW-620
[16] = test system: Malme-3M
[17] = test system: ACHN
[18] = test system: SNB-19
[19] = test system: HL-60
[20] = test system: MDA-MB-231

Compound | GI50 [1] | GI50 [2] | GI50 [3] | GI50 [4] | GI50 [5] | GI50 [6] | GI50 [7] | GI50 [8] | GI50 [9] | GI50 [10] | GI50 [11] | GI50 [12] | GI50 [13] | GI50 [14] | GI50 [15] | GI50 [16] | GI50 [17] | GI50 [18] | GI50 [19] | GI50 [20]
O=[N+]([O-])c1ccc(-c2nc3ccccc3o2)cc1 | > 100 µM (inactive) | > 100 µM (inactive) | > 100 µM (inactive) | > 100 µM (inactive) | > 100 µM (inactive) | > 100 µM (inactive) | > 100 µM (inactive) | > 100 µM (inactive) | > 100 µM (inactive) | > 100 µM (inactive) | > 100 µM (inactive) | > 100 µM (inactive) | > 100 µM (inactive) | > 100 µM (inactive) | > 100 µM (inactive) | > 100 µM (inactive) | > 100 µM (inactive) | > 100 µM (inactive) |  | 
COc1ccccc1C1c2cc3c(cc2OC(O)(CO)C1C(=O)O)OCO3.COc1ccccc1C1c2cc3c(cc2OC2(O)COC(=O)C12)OCO3 (stereo unspecified) | > 100 µM (inactive) | > 100 µM (inactive) | > 100 µM (inactive) | > 100 µM (inactive) | > 100 µM (inactive) | > 100 µM (inactive) |  | > 100 µM (inactive) | > 100 µM (inactive) | > 100 µM (inactive) | > 100 µM (inactive) | > 100 µM (inactive) | > 100 µM (inactive) | > 100 µM (inactive) | > 100 µM (inactive) | > 100 µM (inactive) | > 100 µM (inactive) |  | 95.1 µM (inactive) | 
CCOC1C(Br)Cn2c(=O)c3cc4ccccc4cc3c(=O)n2C1C (stereo unspecified) | 73.5 µM (inactive) | > 100 µM (inactive) | 12.2 µM (inactive) | 78.5 µM (inactive) | > 100 µM (inactive) | > 100 µM (inactive) |  | > 100 µM (inactive) | > 100 µM (inactive) | 58.9 µM (inactive) | 33.8 µM (inactive) | 40.3 µM (inactive) | > 100 µM (inactive) | 47.6 µM (inactive) | 91.8 µM (inactive) | > 100 µM (inactive) | > 100 µM (inactive) | > 100 µM (inactive) | 44.9 µM (inactive) | 
O=C1CCCCC1C1(O)C(=O)Nc2cc(F)ccc21 (stereo unspecified) | > 100 µM (inactive) | > 100 µM (inactive) | > 100 µM (inactive) | > 100 µM (inactive) | > 100 µM (inactive) | > 100 µM (inactive) |  | > 100 µM (inactive) | > 100 µM (inactive) | > 100 µM (inactive) | > 100 µM (inactive) | > 100 µM (inactive) | > 100 µM (inactive) | > 100 µM (inactive) | > 100 µM (inactive) | > 100 µM (inactive) | > 100 µM (inactive) | > 100 µM (inactive) | > 100 µM (inactive) | 
Cc1cccc(C)c1NC(=O)CCCC(=O)C1CCC/C1=N\NC(=O)C(=O)NN (stereo unspecified) | > 100 µM (inactive) | > 100 µM (inactive) | > 100 µM (inactive) | > 100 µM (inactive) | > 100 µM (inactive) | > 100 µM (inactive) |  | > 100 µM (inactive) | > 100 µM (inactive) | > 100 µM (inactive) | > 100 µM (inactive) | > 100 µM (inactive) | > 100 µM (inactive) | > 100 µM (inactive) | > 100 µM (inactive) | > 100 µM (inactive) | > 100 µM (inactive) | > 100 µM (inactive) | > 100 µM (inactive) | 
CCOP(=O)(OCC)C(c1ccc(F)cc1)N(C(=O)NC(F)(F)F)c1ccc(OC)cc1 (stereo unspecified) | > 100 µM (inactive) | > 100 µM (inactive) |  | > 100 µM (inactive) |  | > 100 µM (inactive) |  | > 100 µM (inactive) |  | > 100 µM (inactive) | > 100 µM (inactive) | > 100 µM (inactive) |  | > 100 µM (inactive) | > 100 µM (inactive) | > 100 µM (inactive) | > 100 µM (inactive) | > 100 µM (inactive) | > 100 µM (inactive) | > 100 µM (inactive)
CCOC(=O)/C=C/c1ccccn1 | > 100 µM (inactive) | > 100 µM (inactive) | > 100 µM (inactive) | > 100 µM (inactive) | > 100 µM (inactive) | > 100 µM (inactive) |  | > 100 µM (inactive) | > 100 µM (inactive) | > 100 µM (inactive) | > 100 µM (inactive) | > 100 µM (inactive) | > 100 µM (inactive) | > 100 µM (inactive) | > 100 µM (inactive) | > 100 µM (inactive) | > 100 µM (inactive) |  | > 100 µM (inactive) | 
O=S1(=O)c2ccccc2NC(c2ccc3ccccc3c2)CC1c1ccccc1F (stereo unspecified) | > 100 µM (inactive) | > 100 µM (inactive) | > 100 µM (inactive) | > 100 µM (inactive) | > 100 µM (inactive) | > 100 µM (inactive) |  | > 100 µM (inactive) | > 100 µM (inactive) |  | > 100 µM (inactive) | > 100 µM (inactive) | > 100 µM (inactive) | > 100 µM (inactive) | > 100 µM (inactive) | > 100 µM (inactive) | > 100 µM (inactive) | > 100 µM (inactive) | > 100 µM (inactive) | 
C=CN1C(=O)OC[C@@H]1c1ccccc1 | 67 µM (inactive) | > 100 µM (inactive) | > 100 µM (inactive) | > 100 µM (inactive) | > 100 µM (inactive) | > 100 µM (inactive) |  | > 100 µM (inactive) | > 100 µM (inactive) | 83.2 µM (inactive) | 34.3 µM (inactive) | > 100 µM (inactive) | > 100 µM (inactive) | > 100 µM (inactive) | 19.1 µM (inactive) | > 100 µM (inactive) | > 100 µM (inactive) | > 100 µM (inactive) | > 100 µM (inactive) | 
Clc1ccc(C2=NOC(C3CCCCC3)C2)cc1 (stereo unspecified) |  | > 100 µM (inactive) | > 100 µM (inactive) | > 100 µM (inactive) | > 100 µM (inactive) | > 100 µM (inactive) |  | > 100 µM (inactive) | > 100 µM (inactive) | > 100 µM (inactive) | > 100 µM (inactive) | > 100 µM (inactive) | > 100 µM (inactive) |  | > 100 µM (inactive) | > 100 µM (inactive) | > 100 µM (inactive) |  | > 100 µM (inactive) | 
CC(=O)OCC(OC(C)=O)C(OC(C)=O)C(OC(C)=O)C(=O)CNn1c(-c2ccccc2)nc2ccc(Br)cc2c1=O (stereo unspecified) | > 100 µM (inactive) | > 100 µM (inactive) | > 100 µM (inactive) | > 100 µM (inactive) | > 100 µM (inactive) | > 100 µM (inactive) |  | > 100 µM (inactive) | > 100 µM (inactive) | > 100 µM (inactive) | 64.9 µM (inactive) | > 100 µM (inactive) | > 100 µM (inactive) | > 100 µM (inactive) | > 100 µM (inactive) | > 100 µM (inactive) | > 100 µM (inactive) | > 100 µM (inactive) | > 100 µM (inactive) | 
CC(=O)N(N=O)c1ccc(N(N=O)C(C)=O)cc1 | > 100 µM (inactive) | > 100 µM (inactive) | > 100 µM (inactive) | > 100 µM (inactive) | > 100 µM (inactive) | > 100 µM (inactive) |  | > 100 µM (inactive) | > 100 µM (inactive) | > 100 µM (inactive) | > 100 µM (inactive) | > 100 µM (inactive) | > 100 µM (inactive) |  | > 100 µM (inactive) | > 100 µM (inactive) | > 100 µM (inactive) | > 100 µM (inactive) | > 100 µM (inactive) | 
O=C1CCCc2c(O)ccc(O)c21 | > 100 µM (inactive) | > 100 µM (inactive) | > 100 µM (inactive) | > 100 µM (inactive) | > 100 µM (inactive) | > 100 µM (inactive) |  | > 100 µM (inactive) | > 100 µM (inactive) | > 100 µM (inactive) | 40.6 µM (inactive) | > 100 µM (inactive) | > 100 µM (inactive) | 85.7 µM (inactive) | 61.2 µM (inactive) | > 100 µM (inactive) | > 100 µM (inactive) | > 100 µM (inactive) | 22.8 µM (inactive) | 
O=C(NCCCCCCCCCCCCNC(=O)c1cnc2ccccc2n1)c1cnc2ccccc2n1 | 39.8 µM (inactive) | 48 µM (inactive) | 24.9 µM (inactive) | 23.9 µM (inactive) | 22.6 µM (inactive) |  |  | 66.1 µM (inactive) | 13.6 µM (inactive) | 41.5 µM (inactive) | 23.4 µM (inactive) | 48.1 µM (inactive) | > 100 µM (inactive) | > 100 µM (inactive) | > 100 µM (inactive) | > 100 µM (inactive) | 44.3 µM (inactive) | 14.8 µM (inactive) | > 100 µM (inactive) | 
CCCCNC(=S)c1ccc(OC(=O)Nc2ccc(Cl)cc2)cc1 | 0.573 µM (active) |  | 85.1 µM (inactive) | 19.7 µM (inactive) | > 100 µM (inactive) | 40.3 µM (inactive) | > 100 µM (inactive) |  | 8.43 µM (inactive) | 38.4 µM (inactive) | 65.2 µM (inactive) | 10.4 µM (inactive) | 19.3 µM (inactive) | 42.2 µM (inactive) | > 100 µM (inactive) | 79.8 µM (inactive) | 70.6 µM (inactive) | > 100 µM (inactive) | 8.57 µM (inactive) | 
COc1cc2cc3c4c(cc(OC)c(OC)c4c2cc1OC)CCN3C(=O)OCCN1CCNCC1 | 13.7 µM (inactive) | 14.4 µM (inactive) | 14.6 µM (inactive) | 14.9 µM (inactive) | 17.9 µM (inactive) | 18 µM (inactive) |  | 15.9 µM (inactive) | 17.5 µM (inactive) | 11.9 µM (inactive) | 14.1 µM (inactive) | 13.5 µM (inactive) | 19.3 µM (inactive) | 15.1 µM (inactive) | 14.9 µM (inactive) | 17.3 µM (inactive) | 15.1 µM (inactive) | 21.9 µM (inactive) | 13.2 µM (inactive) | 

Reference: ChEMBL document CHEMBL1201862, “PubChem BioAssay data set” (2004)
